# Assay results from patent US12083196B2, “Personal cleansing compositions with surfactants for increased foam performance” (ECOLAB USA INC., priority 2020, dated 2024).
# How the values were obtained:
# [1] = tested on: Candida albicans (ATCC 10231), Saccharomyces cerevisiae (ATCC 834), Aspergillus niger (ATCC 16404); experiment: Preservative test, yeast and mold inoculum; type: cell-based; conditions: Lathanol LAL in preserved compositions
# Protocol: (§1) The 7 different compositions in Table 4 were tested for their preservative ability, with composition 11 being a negative control as it lacks either phenoxyethanol or benzoic acid. To test the compositions, a bacterial inoculum and a yeast and mold inoculum were created. The bacterial inoculum comprised of equal parts of Staphylococcus aureus (ATCC 6538), Escherichia coli (ATCC 11229), Enterobacter aerogenes (ATCC 13048), Burkholderia cepacian (ATCC 25416), and Pseudomonas aeruginosa (ATCC 15442). The yeast and mold inoculum comprised of equal parts of Candida albicans (ATCC 10231), Saccharomyces cerevisiae (ATCC 834), and Aspergillus niger (ATCC 16404).
# (§2) The inoculates were incubated for 3 days with the bacterial inoculum at 32° C. and the yeast and mold inoculum at 26° C. The preservative compositions were added, and samples measured at 7, 14, 21, and 28 days. A sample passed if no bacteria or yeast and mod survived after Day 7, conditionally passed if there was a greater than 2.0 log reduction on day 7 when compared to day 3, with no additional growth on days 14, 21, or 28 for the bacterial samples, and if there was not more than a 0.5 log increase from the initial inoculated count at days 14 and 28 for the yeast and mold samples. The results are summarized in Table 5 for bacterial samples and Table 6 for yeast and mold.
# [2] = SITA Foam Analyzer foam creation; type: physicochemical; conditions: single surfactant, 1%, FIG. 1
# Excerpt: The reagents used below include: • Alpha-Step® PC-48 is a C10-16 sodium methyl 2-sulfolaurate and disodium 2-sulfolaurate available from Stepan; • Stepan-Mild® L3 is a predominantly C12 reaction product of lauryl alcohol and lactic acid available from Stepan; • SLES is sodium laureth sulfate; • Cola® Teric is an amphoteric sultaine available from Colonial Chemical, Inc.; • Glucopon® […] is an alkyl polyglycoside available from BASF Corporation; • Suga® Nate is a sodium laurylglucosides hydrooxypropylsulfonate available from Colonial Chemicals, Inc; • Lathanol® LAL is a sodium lauryl sulfoacetate available from Stepan. All experiments ran through the SITA Foam Analyzer were as follows: Equipment: • 1) Foaming Apparatus • 2) SITA Software Reagents: • 1) 250 mL of each solution • 2) DI water Preparation: Equipment is prepared by turning the water bath on with ample time to warm up before running tests. Adjust water bath to desired temperature. Quality Assurance: Run a positive and negative control for every experiment. Ensure equipment is clean and free from any residual surfactant chemistry beforehand. In each experiment set, proper differentiation between chemistries can be seen if at least one of the tested chemistries has an “S” curve that depicts a change in the initial foam building and the lathering step. Experimental Procedure: • 1) Prepare water bath • 2) Open the “SITA-foam” software on the computer. […] Foam Generation • i. Series Count (cycles): number of measurement replicates (3-triplicate) • ii. Fill With: Volume of sample liquid (250 mL for each test) • iii. Stir Count: Number of stirrings for each test (70). This is also the number of measurements for each cycle. • iv. Stir Time: Stirring duration of sample (10 sec) • v. Revolution: RPM o the stirrer (900 RMP) • b. Cleansing • i. Click the shower icon to activate the automatic cleansing and rinsing function. The vessel will be cleaned automatically after each cycle of measurements. • ii. Normal cleansing will rinse out the vessel many times. Small cleansing indicates a faster cleansing process. All above parameters can be saved • 5) After setting the parameters, click on “Start Measurement” which is the green “Play” button to proceed with the experiment • 6) After each cycle of experiments automatic cleansing and rinsing is done in preparation for the next cycle of measurements as long as the instrument is connected to tap water or a cleansing liquid reservoir • 7) Each click on the green “Start Measurement” icon opens a new window. The current sample measurement results are all in the same project folder. To rename sample measurement files, right click on the open sample window, and click “save” to rename your sample file • 8) If an error occurs at any point with your sample, the measurement reading can be stopped by clicking the red square “Stop icon” or by pressing the large red button on the machine • 9) Organize the graph generated with the icons in the fourth section of the tool bar: create new plot, add/remove data from plot, change axis properties, and view properties. Click on the “Create new plot” icon to view the plot after the experiment is done or if it is still running. Right click to rename the plot, insert or remove the plot and display the foam buildup, foam decay, or both Establishing initial foaming of the single surfactants is important to establish baselines for comparison for the combinations of various surfactants. To establish the foaming properties of single surfactants, a high amount of each surfactant was analyzed in the SITA Foam Analyzer as described above. The final concentration of each surfactant in solution was 1%. The surfactants tested were sodium lauryl sulfate (SLES), a betaine, Cola® Teric CBS, Glucopon® […], Lathanol® LAL, and Suga® Nate 160NC. […] The compositions were tested for foaming using the SITA Foam Analyzer as described above. […]
# [3] = tested on: Staphylococcus aureus (ATCC 6538), Escherichia coli (ATCC 11229), Enterobacter aerogenes (ATCC 13048), Burkholderia cepacian (ATCC 25416), Pseudomonas …; experiment: Preservative test, bacterial inoculum; type: cell-based; conditions: Lathanol LAL in preserved compositions
# Protocol: as §1, §2
Compound,interference with antifungal or antimold capabilities (in words) [1],onset of foam saturation (in words) [2],"interference with preservatives, bacteria (in words) [3]"
"CCCCCCCCCCCCOC(=O)CS(=O)(=O)O.[Na] [Lathanol® LAL, sodium lauryl sulfoacetate]",does not interfere with the antifungal or antimold capabilities,performing more slowly,does not interfere with the addition of preservatives
sodium laurylglucosides hydrooxypropylsulfonate [Suga® Nate 160NC],–,performing more slowly,–
C[N+](C)(C)CC(=O)O [betaine],–,reached saturation at earlier cycles/readings,–
